Laboratory results from ChEMBL document CHEMBL1143429, “One-pot synthesis and antibacterial activities of pyrazolo[4',3':5,6]pyrido[2,3-d]pyrimidine-dione derivatives” (2008).
Values after ≈ are worked out from the molar mass of the structure shown. Active and inactive are the calls of the source. The rule behind the calls is not given here.

Key:
Format in all cases: functional
Escherichia coli = assay: Antibacterial activity against Escherichia coli ATCC 25922 by microdilution method
Bacillus pumilus = assay: Antibacterial activity against Bacillus pumilus PTCC 1114 by microdilution method
[1] = tested on: Staphylococcus epidermidis; assay: Antibacterial activity against Staphylococcus epidermidis ATCC 12228 by microdilution method
Pseudomonas aeruginosa = assay: Antibacterial activity against Pseudomonas aeruginosa ATCC 85327 by microdilution method
Micrococcus luteus = assay: Antibacterial activity against Micrococcus luteus PTCC 1110 by microdilution method
Enterococcus faecalis = assay: Antibacterial activity against Enterococcus faecalis ATCC 29737 by microdilution method
Streptococcus mutans = assay: Antibacterial activity against Streptococcus mutans PTCC 1601 by microdilution method
Staphylococcus aureus = assay: Antibacterial activity against Staphylococcus aureus ATCC 25923 by microdilution method
Bacillus subtilis = assay: Antibacterial activity against Bacillus subtilis ATCC 465 by microdilution method

Row | Compound | Activity (Escherichia coli) | MIC (Bacillus pumilus) | MIC [1] | Activity (Pseudomonas aeruginosa) | MIC (Micrococcus luteus) | MIC (Enterococcus faecalis) | MIC (Streptococcus mutans) | MIC (Staphylococcus aureus) | MIC (Bacillus subtilis) | MIC (Escherichia coli) | MIC (Pseudomonas aeruginosa) | Activity (Bacillus pumilus) | Activity [1] | Activity (Micrococcus luteus) | Activity (Enterococcus faecalis) | Activity (Streptococcus mutans) | Activity (Staphylococcus aureus) | Activity (Bacillus subtilis)
1 | CN(C)[C@@H]1C(O)=C(C(N)=O)C(=O)[C@@]2(O)C(O)=C3C(=O)c4c(O)cccc4[C@@](C)(O)[C@H]3C[C@@H]12 [TETRACYCLINE] | inactive | 8 µg/mL (≈ 18 µM) | < 2 µg/mL | inactive | 4 µg/mL (≈ 9 µM) | 8 µg/mL (≈ 18 µM) | 2 µg/mL (≈ 4.5 µM) | 4 µg/mL (≈ 9 µM) | 4 µg/mL (≈ 9 µM) | – | – | – | – | – | – | – | – | –
2 | O=c1[nH]c(=S)[nH]c2c1C(c1ccc(Cl)cc1)c1c(-c3ccccc3)nn(-c3ccc([N+](=O)[O-])cc3)c1N2 (configuration not stated) | – | 4 µg/mL (≈ 7.56 µM) | 6 µg/mL (≈ 11.3 µM) | – | 3 µg/mL (≈ 5.67 µM) | 12 µg/mL (≈ 22.7 µM) | 8 µg/mL (≈ 15.1 µM) | 6 µg/mL (≈ 11.3 µM) | 4 µg/mL (≈ 7.56 µM) | 6 µg/mL (≈ 11.3 µM) | 16 µg/mL (≈ 30.2 µM) | – | – | – | – | – | – | –
3 | O=c1[nH]c2c(c(=O)[nH]1)C(c1ccc(Cl)cc1)c1c(-c3ccccc3)nn(-c3ccc([N+](=O)[O-])cc3)c1N2 (configuration not stated) | – | 6 µg/mL (≈ 11.7 µM) | 28 µg/mL (≈ 54.6 µM) | – | 4 µg/mL (≈ 7.8 µM) | 2 µg/mL (≈ 3.9 µM) | < 2 µg/mL | 4 µg/mL (≈ 7.8 µM) | 8 µg/mL (≈ 15.6 µM) | 6 µg/mL (≈ 11.7 µM) | 28 µg/mL (≈ 54.6 µM) | – | – | – | – | – | – | –
4 | O=c1[nH]c2c(c(=O)[nH]1)C(c1cccc([N+](=O)[O-])c1)c1c(-c3ccccc3)nn(-c3ccc([N+](=O)[O-])cc3)c1N2 (configuration not stated) | – | 4 µg/mL (≈ 7.64 µM) | 26 µg/mL (≈ 49.7 µM) | – | 2 µg/mL (≈ 3.82 µM) | 2 µg/mL (≈ 3.82 µM) | < 2 µg/mL | 2 µg/mL (≈ 3.82 µM) | 6 µg/mL (≈ 11.5 µM) | 6 µg/mL (≈ 11.5 µM) | 30 µg/mL (≈ 57.3 µM) | – | – | – | – | – | – | –
5 | Cc1ccc(C2c3c(-c4ccccc4)nn(-c4ccccc4)c3Nc3[nH]c(=O)[nH]c(=O)c32)cc1 (configuration not stated) | – | 2 µg/mL (≈ 4.47 µM) | 2 µg/mL (≈ 4.47 µM) | – | < 2 µg/mL | 2 µg/mL (≈ 4.47 µM) | < 2 µg/mL | 2 µg/mL (≈ 4.47 µM) | 2 µg/mL (≈ 4.47 µM) | < 2 µg/mL | 2 µg/mL (≈ 4.47 µM) | – | – | – | – | – | – | –
6 | O=c1[nH]c2c(c(=O)[nH]1)C(c1cccc([N+](=O)[O-])c1)c1c(-c3ccccc3)nn(-c3ccccc3)c1N2 (configuration not stated) | – | 2 µg/mL (≈ 4.18 µM) | 2 µg/mL (≈ 4.18 µM) | – | 2 µg/mL (≈ 4.18 µM) | 2 µg/mL (≈ 4.18 µM) | < 2 µg/mL | 2 µg/mL (≈ 4.18 µM) | 2 µg/mL (≈ 4.18 µM) | < 2 µg/mL | 2 µg/mL (≈ 4.18 µM) | – | – | – | – | – | – | –
7 | O=c1[nH]c(=S)[nH]c2c1C(c1ccccc1)c1c(-c3ccccc3)nn(-c3ccccc3)c1N2 (configuration not stated) | – | 4 µg/mL (≈ 8.9 µM) | 4 µg/mL (≈ 8.9 µM) | – | 8 µg/mL (≈ 17.8 µM) | 4 µg/mL (≈ 8.9 µM) | < 2 µg/mL | 8 µg/mL (≈ 17.8 µM) | 4 µg/mL (≈ 8.9 µM) | 4 µg/mL (≈ 8.9 µM) | 32 µg/mL (≈ 71.2 µM) | – | – | – | – | – | – | –
8 | GENTAMICIN | – | – | – | – | – | – | – | – | – | 4 µg/mL | 8 µg/mL | inactive | inactive | inactive | inactive | inactive | inactive | inactive
9 | O=c1[nH]c2c(c(=O)[nH]1)C(c1ccccc1)c1c(-c3ccccc3)nn(-c3ccccc3)c1N2 (configuration not stated) | – | < 2 µg/mL | 2 µg/mL (≈ 4.61 µM) | – | < 2 µg/mL | 2 µg/mL (≈ 4.61 µM) | < 2 µg/mL | 2 µg/mL (≈ 4.61 µM) | 2 µg/mL (≈ 4.61 µM) | < 2 µg/mL | 2 µg/mL (≈ 4.61 µM) | – | – | – | – | – | – | –
10 | O=c1[nH]c2c(c(=O)[nH]1)C(c1ccccc1)c1c(-c3ccccc3)nn(-c3ccc([N+](=O)[O-])cc3)c1N2 (configuration not stated) | – | 4 µg/mL (≈ 8.36 µM) | 18 µg/mL (≈ 37.6 µM) | – | 2 µg/mL (≈ 4.18 µM) | 4 µg/mL (≈ 8.36 µM) | < 2 µg/mL | 4 µg/mL (≈ 8.36 µM) | 6 µg/mL (≈ 12.5 µM) | 4 µg/mL (≈ 8.36 µM) | 20 µg/mL (≈ 41.8 µM) | – | – | – | – | – | – | –
11 | O=c1[nH]c(=S)[nH]c2c1C(c1ccccc1)c1c(-c3ccccc3)nn(-c3ccc([N+](=O)[O-])cc3)c1N2 (configuration not stated) | – | 4 µg/mL (≈ 8.09 µM) | 7 µg/mL (≈ 14.2 µM) | – | 4 µg/mL (≈ 8.09 µM) | 13 µg/mL (≈ 26.3 µM) | 8 µg/mL (≈ 16.2 µM) | 3 µg/mL (≈ 6.07 µM) | 3 µg/mL (≈ 6.07 µM) | 5 µg/mL (≈ 10.1 µM) | 14 µg/mL (≈ 28.3 µM) | – | – | – | – | – | – | –
12 | O=c1[nH]c2c(c(=O)[nH]1)C(c1ccc(Br)cc1)c1c(-c3ccccc3)nn(-c3ccc([N+](=O)[O-])cc3)c1N2 (configuration not stated) | – | 4 µg/mL (≈ 7.18 µM) | 32 µg/mL (≈ 57.4 µM) | – | 2 µg/mL (≈ 3.59 µM) | 4 µg/mL (≈ 7.18 µM) | < 2 µg/mL | 4 µg/mL (≈ 7.18 µM) | 8 µg/mL (≈ 14.4 µM) | 4 µg/mL (≈ 7.18 µM) | 32 µg/mL (≈ 57.4 µM) | – | – | – | – | – | – | –
13 | O=c1[nH]c2c(c(=O)[nH]1)C(c1ccc(Cl)cc1)c1c(-c3ccccc3)nn(-c3ccccc3)c1N2 (configuration not stated) | – | 2 µg/mL (≈ 4.27 µM) | 4 µg/mL (≈ 8.55 µM) | – | < 2 µg/mL | 32 µg/mL (≈ 68.4 µM) | < 2 µg/mL | 64 µg/mL (≈ 137 µM) | 4 µg/mL (≈ 8.55 µM) | < 2 µg/mL | 2 µg/mL (≈ 4.27 µM) | – | – | – | – | – | – | –
14 | O=c1[nH]c(=S)[nH]c2c1C(c1ccc([N+](=O)[O-])cc1)c1c(-c3ccccc3)nn(-c3ccc([N+](=O)[O-])cc3)c1N2 (configuration not stated) | – | 4 µg/mL (≈ 7.41 µM) | 8 µg/mL (≈ 14.8 µM) | – | 4 µg/mL (≈ 7.41 µM) | 10 µg/mL (≈ 18.5 µM) | 8 µg/mL (≈ 14.8 µM) | 6 µg/mL (≈ 11.1 µM) | 4 µg/mL (≈ 7.41 µM) | 6 µg/mL (≈ 11.1 µM) | 14 µg/mL (≈ 25.9 µM) | – | – | – | – | – | – | –
15 | Cc1ccc(C2c3c(-c4ccccc4)nn(-c4ccc([N+](=O)[O-])cc4)c3Nc3[nH]c(=O)[nH]c(=O)c32)cc1 (configuration not stated) | – | 6 µg/mL (≈ 12.2 µM) | 24 µg/mL (≈ 48.7 µM) | – | 2 µg/mL (≈ 4.06 µM) | 2 µg/mL (≈ 4.06 µM) | < 2 µg/mL | 2 µg/mL (≈ 4.06 µM) | 6 µg/mL (≈ 12.2 µM) | 4 µg/mL (≈ 8.12 µM) | 28 µg/mL (≈ 56.9 µM) | – | – | – | – | – | – | –
16 | O=c1[nH]c(=S)[nH]c2c1C(c1ccc(Cl)cc1)c1c(-c3ccccc3)nn(-c3ccccc3)c1N2 (configuration not stated) | – | 4 µg/mL (≈ 8.26 µM) | 8 µg/mL (≈ 16.5 µM) | – | 4 µg/mL (≈ 8.26 µM) | 16 µg/mL (≈ 33.1 µM) | 8 µg/mL (≈ 16.5 µM) | 4 µg/mL (≈ 8.26 µM) | 4 µg/mL (≈ 8.26 µM) | 4 µg/mL (≈ 8.26 µM) | 16 µg/mL (≈ 33.1 µM) | – | – | – | – | – | – | –
17 | O=c1[nH]c(=S)[nH]c2c1C(c1ccc([N+](=O)[O-])cc1)c1c(-c3ccccc3)nn(-c3ccccc3)c1N2 (configuration not stated) | – | 4 µg/mL (≈ 8.09 µM) | 8 µg/mL (≈ 16.2 µM) | – | 3 µg/mL (≈ 6.07 µM) | 14 µg/mL (≈ 28.3 µM) | 6 µg/mL (≈ 12.1 µM) | 4 µg/mL (≈ 8.09 µM) | 4 µg/mL (≈ 8.09 µM) | 6 µg/mL (≈ 12.1 µM) | 12 µg/mL (≈ 24.3 µM) | – | – | – | – | – | – | –
18 | O=c1[nH]c2c(c(=O)[nH]1)C(c1ccc(Br)cc1)c1c(-c3ccccc3)nn(-c3ccccc3)c1N2 (configuration not stated) | – | 2 µg/mL (≈ 3.9 µM) | 2 µg/mL (≈ 3.9 µM) | – | 2 µg/mL (≈ 3.9 µM) | 30 µg/mL (≈ 58.6 µM) | < 2 µg/mL | 58 µg/mL (≈ 113 µM) | 2 µg/mL (≈ 3.9 µM) | < 2 µg/mL | 2 µg/mL (≈ 3.9 µM) | – | – | – | – | – | – | –
